Experimental data from patent US6362369B1, “Phthalic acid diamide derivatives fluorine-containing aniline compounds as starting material, agricultural and horticultural insecticides, and a method for application of the insecticides” (Nihon Nohyaku Co., Ltd., priority 1997, dated 2002).

Experiments:
[1] = tested on: diamondback moth (Plutella xylostella); experiment: Insecticidal effect on diamondback moth (Test Example 1); format: in vivo; settings: diamondback moth; for Insecticidal effect, Test Example 1: mortality judged by criterion of Test Example 1; for Insecticidal effect (Test Example 1), judged from mortality: judged by the criterion of Test Example 1
Summary of the method: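 Triplicate groups of 10 insects were scored: six days after immersion of oviposited Chinese cabbage seedlings and holding at 25 °C post air-drying, hatched larvae were counted. Mortality derived from these counts and insecticidal effect judged by a set criterion.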

[2] = tested on: rice leafroller (Cnaphalocrocis medinalis); experiment: Insecticidal effect on rice leafroller (Test Example 3); format: in vivo; settings: 500 ppm, 25° C., humidity 70%; for Insecticidal effect, Test Example 3: rice leafroller third-instar larvae, rice lamina immersed, four days after inoculation; for Insecticidal effect (Test Example 3), judged from mortality: rice lamina dip, third-instar larvae of rice leafroller, 4 days after inoculation
Summary of the method: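 Insecticidal effect is judged by a predefined criterion from dead/alive counts four days after infesting air-dried lamina with third-instar larvae, kept on moistened filter paper at 25° C, 70% humidity.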

SMILES	Insecticidal effect, Test Example 1 [1]	Insecticidal effect, Test Example 3 [2]	Insecticidal effect (Test Example 1), judged from mortality [1]	Insecticidal effect (Test Example 3), judged from mortality [2]
CCN(CC)C(=O)c1c(C(=O)Nc2ccc(OC(F)(F)C(F)F)cc2C)cccc1[N+](=O)[O-] [compound 1132]	A (100)	A (100)		
CCN(CC)C(=O)c1c(C(=O)Nc2ccc(C(F)(F)C(F)(F)F)cc2Cl)cccc1[N+](=O)[O-] [compound 1133]	A (100)	A (100)		
CCN(CC)C(=O)c1c(C(=O)Nc2ccc(C(F)(F)C(F)(F)F)cc2F)cccc1[N+](=O)[O-] [compound 1134]	A (100)	A (100)		
CCN(CC)C(=O)c1c(C(=O)Nc2ccc(Cl)cc2C)cccc1[N+](=O)[O-] [compound 1135]	A (100)	A (100)		
CCN(CC)C(=O)c1c(C(=O)Nc2ccc(OC(F)(F)F)cc2)cccc1[N+](=O)[O-] [compound 1136]	A (100)	A (100)		
CC(C)NC(=O)c1ccccc1C(=O)Nc1ccc2c(c1)OC(F)C(F)(F)O2 (centres unmarked) [compound 1145]	A (100)	A (100)		
CC(C)(C)NC(=O)c1ccccc1C(=O)Nc1ccc2c(c1)OC(F)C(F)(F)O2 (centres unmarked) [compound 1149]	A (100)	A (100)		
CCC(C)(C)NC(=O)c1c(F)cccc1C(=O)Nc1ccc(OC(F)F)cc1C [compound 1155]	A (100)	A (100)		
CCCN(CCC)C(=O)c1c(I)cccc1C(=O)Nc1ccc(OC(F)F)cc1C [compound 1157]	A (100)	A (100)		
Cc1cc(OC(F)F)ccc1NC(=O)c1cc(I)ccc1C(=O)NC(C)C [compound 1205]	A (100)	A (100)		
CCc1cc(OC(F)(F)F)ccc1NC(=O)c1ccccc1C(=O)NC(C)C [compound 1208]	A (100)	A (100)		
Cc1cc(C(F)(F)C(F)(F)F)ccc1NC(=O)c1ccc(Br)c(Br)c1C(=O)NC(C)C [compound 1266]	A (100)	A (100)		
CCN(CC)C(=O)c1cc(Cl)cc(I)c1C(=O)Nc1ccc(C(F)(F)C(F)(F)F)cc1C [compound 1281]	A (100)	A (100)		
Cc1cc(OC(F)(F)F)ccc1NC(=O)c1ccc(F)c(F)c1C(=O)NC(C)(C)C [compound 1284]	A (100)	A (100)		
CCN(CC)C(=O)c1c(C(=O)Nc2ccc(OC(F)(F)F)cc2C)ccc(F)c1F [compound 1285]	A (100)	A (100)		
Cc1cc(C#CC(C)(C)C)ccc1NC(=O)c1cccc(Cl)c1C(=O)NC(C)C [compound 1301]	A (100)	A (100)		
CCCNC(=O)c1cccc(I)c1C(=O)Nc1ccc(C(F)(F)C(F)(F)F)cc1C [compound 1304]	A (100)	A (100)		
CNC(=O)c1cccc(I)c1C(=O)Nc1ccc(C(F)(F)C(F)(F)F)cc1C [compound 1312]	A (100)	A (100)		
CCC(O)CNC(=O)c1c(Cl)cccc1C(=O)Nc1ccc(C(F)(F)C(F)(F)F)cc1C (centres unmarked) [compound 1318]	A (100)	A (100)		
Cc1cc(C(F)(F)C(F)(F)F)ccc1NC(=O)c1cccc(Cl)c1C(=O)NC(C)c1ccccc1 (centres unmarked) [compound 1321]	A (100)	A (100)		
Cc1cc(CCC(C)(C)C)ccc1NC(=O)c1cccc(Cl)c1C(=O)NC(C)C [compound 1323]	A (100)	A (100)		
Cc1cc(C#Cc2ccccc2)ccc1NC(=O)c1cccc(Cl)c1C(=O)NC(C)C [compound 1325]	A (100)	A (100)		
Cc1cc(C(F)(F)C(F)(F)F)ccc1NC(=O)c1cccc(Cl)c1C(=O)NCCCc1ccccc1 [compound 1331]	A (100)	A (100)		
Cc1cc(C(F)(F)C(F)(F)F)ccc1NC(=O)c1cccc(Cl)c1C(=O)NCc1ccc(Cl)cc1 [compound 1333]	A (100)	A (100)		
Cc1ccccc1CNC(=O)c1c(Cl)cccc1C(=O)Nc1ccc(C(F)(F)C(F)(F)F)cc1C [compound 1337]	A (100)	A (100)		

SMILES	Insecticidal effect, Test Example 1 [1]	Insecticidal effect, Test Example 3 [2]	Insecticidal effect (Test Example 1), judged from mortality [1]	Insecticidal effect (Test Example 3), judged from mortality [2]
Cc1cccc(CNC(=O)c2c(Cl)cccc2C(=O)Nc2ccc(C(F)(F)C(F)(F)F)cc2C)c1 [compound 1339]	A (100)	A (100)		
Cc1cccc(CNC(=O)c2cccc(Cl)c2C(=O)Nc2ccc(C(F)(F)C(F)(F)F)cc2C)c1 [compound 1340]	A (100)	A (100)		
COc1ccccc1CNC(=O)c1c(Cl)cccc1C(=O)Nc1ccc(C(F)(F)C(F)(F)F)cc1C [compound 1343]	A (100)	A (100)		
Cc1cc(C(F)(F)C(F)(F)F)ccc1NC(=O)c1cccc(Cl)c1C(=O)NCc1ccc(Cl)c(Cl)c1 [compound 1351]	A (100)	A (100)		
Cc1cc(C(F)(F)C(F)(F)F)ccc1NC(=O)c1c(Cl)cccc1C(=O)NCc1ccc(Cl)c(Cl)c1 [compound 1352]	A (100)	A (100)		
Cc1cc(C(F)(F)C(F)(F)F)ccc1NC(=O)c1cccc(Cl)c1C(=O)NCCc1cccc(Cl)c1 [compound 1358]	A (100)	C (89-80)		
Cc1cc(C(F)(F)C(F)(F)F)ccc1NC(=O)c1cccc(Cl)c1C(=O)NCCc1ccc(Cl)cc1 [compound 1360]	A (100)	C (89-80)		
Cc1cc(C(F)(F)C(F)(F)F)ccc1NC(=O)c1cccc(Cl)c1C(=O)NCCOc1cccc(Cl)c1 [compound 1370]	A (100)	A (100)		
Cc1cc(C(F)(F)C(F)(F)F)ccc1NC(=O)c1ccccc1C(=O)NC(C)(C)CO [compound 1381]	A (100)	C (89-80)		
Cc1cc(C(F)(F)C(F)(F)F)ccc1NC(=O)c1cccc(Cl)c1C(=O)Nc1ccco1 [compound 1390]	A (100)	A (100)		
Cc1cc(C(F)(F)C(F)(F)F)ccc1NC(=O)c1cccc(Cl)c1C(=O)NC1CCCO1 (centres unmarked) [compound 1392]	A (100)	A (100)		
Cc1cc(C(F)(F)C(F)(F)F)ccc1NC(=O)c1c(Cl)cccc1C(=O)NC1CCCO1 (centres unmarked) [compound 1393]	A (100)	A (100)		
Cc1cc(C(F)(F)C(F)(F)F)ccc1NC(=O)c1cccc(Cl)c1C(=O)NCc1ccncc1 [compound 1394]	A (100)	A (100)		
CC(C)NC(=O)c1c(I)cccc1C(=O)Nc1ccc(Br)cc1C(F)(F)C(F)(F)F [compound 1409]	A (100)	A (100)		
CC(C)NC(=O)c1c(I)cccc1C(=O)Nc1ccc(C(F)(F)C(F)(F)F)cc1C(F)(F)C(F)(F)F [compound 1410]	A (100)	A (100)		
C#CCNC(=O)c1ccccc1C(=O)Nc1ccc(C(F)(F)C(F)(F)F)cc1C [compound 1411]	A (100)	A (100)		
Cc1cc(C(F)(F)C(F)(F)F)ccc1NC(=O)c1c(Cl)cccc1C(=O)NC(C)(C)CO [compound 1415]	A (100)	A (100)		
Cc1cc(C(F)(F)C(F)(F)F)ccc1NC(=O)c1cccc(Cl)c1C(=O)NCc1cccnc1 [compound 1419]	A (100)	A (100)		
Cc1cc(C(F)(F)C(F)(F)F)ccc1NC(=O)c1c(Cl)cccc1C(=O)NCc1cccnc1 [compound 1420]	A (100)	A (100)		
Cc1cc(C(F)(F)C(F)(F)F)ccc1NC(=O)c1c(I)cccc1C(=O)N(C)Cc1ccccc1 [compound 1439]	A (100)	C (89-80)		
CCC(CO)NC(=O)c1cccc(Cl)c1C(=O)Nc1ccc(C(F)(F)C(F)(F)F)cc1C (centres unmarked) [compound 1441]	A (100)	A (100)		
C#CCNC(=O)c1c(I)cccc1C(=O)Nc1ccc(OC(F)F)cc1C [compound 1456]			A (100)	A (100)
CCN(Cc1ccccc1)C(=O)c1c(Cl)cccc1C(=O)Nc1ccc(C(F)(F)C(F)(F)F)cc1C [compound 1457]			A (100)	A (100)
Cc1cc(C(F)(F)C(F)(F)F)ccc1NC(=O)c1c(Cl)cccc1C(=O)N[C@H](C)CO [compound 1461]			A (100)	A (100)
